Key:
[1] = target: T1, M4 muscarinic receptor (Homo sapiens, UniProt P08173); experiment: Functional mobilization of intracellular calcium (FLIPR) in CHO cells expressing M4 muscarinic receptor; type: cell-based; conditions: for M4 Activity: CHO cells expressing M4, calcium mobilization; for Emax: CHO, 100% efficacy is the maximum response obtained with the Carbachol control
T1 construct: expressed in transfected cells; host or cells: CHO (M4-CHO recombinant cell line)
T1 sequence (P08173 1-479): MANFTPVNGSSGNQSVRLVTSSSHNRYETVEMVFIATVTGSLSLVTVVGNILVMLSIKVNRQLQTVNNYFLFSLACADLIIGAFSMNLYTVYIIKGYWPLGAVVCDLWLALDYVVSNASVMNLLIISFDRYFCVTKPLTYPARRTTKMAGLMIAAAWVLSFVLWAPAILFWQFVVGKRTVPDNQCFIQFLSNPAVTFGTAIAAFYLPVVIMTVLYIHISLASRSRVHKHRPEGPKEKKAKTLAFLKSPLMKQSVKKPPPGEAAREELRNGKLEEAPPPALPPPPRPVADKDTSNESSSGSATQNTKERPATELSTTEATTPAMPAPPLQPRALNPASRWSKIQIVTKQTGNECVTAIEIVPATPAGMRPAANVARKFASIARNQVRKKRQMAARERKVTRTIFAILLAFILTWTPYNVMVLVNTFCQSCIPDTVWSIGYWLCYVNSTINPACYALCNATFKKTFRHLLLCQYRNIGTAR
Experimental: (§1) VI. Assays for Detecting and Measuring Inhibition Properties of Compounds Functional Mobilization of Intracellular Calcium to Determine Muscarinic Receptor Activity:
(§2) CHO cells expressing muscarinic receptors (M1 to M5) are grown as monolayers in tissue culture flasks at 37° C. in a humidified atmosphere containing 5% CO2 and passaged every 3-5 days. The growth media is Dulbecco's modified eagles medium (DMEM, Gibco Cat# 12430-054), containing 25 mM Hepes and supplemented with Fetal Bovine Serum (Hyclone, cat# SH30071.03), 0.1 mM of MEM non-essential amino acids (GIBCO, Cat# 11140-050), 1 mM MEM Sodium Pyruvate (GIBCO Cat# 11360-070) and 100 units/ml of Penicillin G and 100 μg/ml of Streptomycin (GIBCO Cat# 15140-122). The recombinant muscarinic receptor cell lines are grown under antibiotic pressure with media containing 25 μg/ml zeocin and 500 μg/ml G418 (M1-CHO), 4 μg/ml puromycin, 50 μg/ml zeocin and 2.5 μg/ml blasticidin (M2 and M4-CHO) or 50 μg/ml zeocin and 4 μg/ml puromycin (M3 and M5-CHO).
(§3) Cells are harvested at 80-90% confluence using Versene (GIBCO Cat# 15040-066), collected by centrifugation and seeded 18-24 hours prior to running the calcium assay at a density of 5,000-10,000 cells/well in […], clear-bottomed 384-well plates (BD Biocoat, poly-D-lysine, Cat#356663). The day of the experiment, the cells are washed with a plate washer (Bioteck Instruments, ELX 405) using bath buffer (140-mM NaCl, 4.5-mM KCl, 2-mM CaCl2, 1-mM MgCl2, 10-mM Hepes-Na, 10-mM Glucose, pH 7.4, with NaOH) containing 1 mM Probenecid. Next, the calcium dye Fluo-3 (25 μl/well of Fluo-3 μM at 4 μM, Molecular Probes F-1241, in Bath 1 buffer containing 1 mM Probenecid) is added to the 25 μl of Bath 1 remaining in each well after the plate wash and the dye is loaded at 37° C. in the tissue culture incubator for 60-90 min. The fluorescent dye is removed using the plate washer with Bath 1 containing 1 mM Probenecid, leaving 25 μl/well of this solution after the wash. Alternatively, cells can be loaded with the calcium indicator from Molecular Devices (Calcium 3 Assay Reagents, Cat # R7181) adding 5 μl of a 5× solution dye in Bath 1 containing 1 mM Probenecid (10 ml per dye flask cat# R7182 to generate a solution 20×) to 20 μl of the same buffer. After loading for 60 min, the experiment can be run without having to remove the dye.
(§4) Compounds are prepared at a 2× fold concentration in a 96-well plate (round bottom, Costar Corning cat# 3656), by reconstituting the pre-spotted compounds in bath 1 containing 1 mM probenecid. The final concentration DMSO is 0.5%, and the amount of DMSO is normalized across the assay plate. To determine an agonist action of the compounds on muscarinic receptors, the reconstituted compounds are added (25 μl compound/well) to the cell assay plate (containing 25 μl/well) using the multi-channel robotic system of the FLIPR 3 Instrument (Molecular Devices, Sunnyvale, Calif.). To determine a functional inhibitory-action of the compounds on muscarinic receptors, the reconstituted compounds are added (25 μl compound/well) to the assay plate and pre-incubated for 15 min prior to adding 25 μl of Carbachol at 3× the EC80 for each muscarinic subtype. Alternatively, the compounds can be co-applied simultaneously with the agonist. In both assay modes, the fluorescence is recorded for 60 sec (excitation wavelength is […] and emission wavelength 540 nm) using the FLIPR 3 instrument.
(§5) The potency, efficacy and selectivity of the muscarinic compounds were evaluated by screening the compound activity across the whole family (M1 to M5 cells). Compounds were also screened for activity on other proteins such as other GPCRs and ion channels to determine selectivity on M4 receptors.
(§6) Examples of activities and efficacies of the muscarinic compounds of formulae (I, Ia, and Ib) on modulating M1 and M4 receptors are shown below in Table 8. […]

[2] = target: T2, M1 muscarinic receptor (Homo sapiens, UniProt P11229); experiment: Functional mobilization of intracellular calcium (FLIPR) in CHO cells expressing M1 muscarinic receptor; type: cell-based; conditions: for M1 Activity: CHO cells expressing M1, calcium mobilization; for Emax: CHO, 100% efficacy is the maximum response obtained with the Carbachol control
T2 construct: expressed in transfected cells; host or cells: CHO (M1-CHO recombinant cell line)
T2 sequence (P11229 1-460): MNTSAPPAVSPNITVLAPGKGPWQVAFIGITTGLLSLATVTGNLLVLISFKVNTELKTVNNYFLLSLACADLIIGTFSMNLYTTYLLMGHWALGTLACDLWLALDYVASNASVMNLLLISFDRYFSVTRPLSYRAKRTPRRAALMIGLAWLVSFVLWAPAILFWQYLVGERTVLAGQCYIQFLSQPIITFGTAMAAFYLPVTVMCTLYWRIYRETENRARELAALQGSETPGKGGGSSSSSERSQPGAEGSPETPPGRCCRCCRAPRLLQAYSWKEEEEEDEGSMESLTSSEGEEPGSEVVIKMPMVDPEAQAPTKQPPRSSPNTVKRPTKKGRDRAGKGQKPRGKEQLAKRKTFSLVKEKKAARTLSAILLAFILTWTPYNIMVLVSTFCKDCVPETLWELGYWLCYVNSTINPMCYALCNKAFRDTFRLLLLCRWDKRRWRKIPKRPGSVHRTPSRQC
Experimental: as §1, §2, §3, §4, §5, §6

## CN(C)C(=O)C1=CC2(CCN(C3CCCCCC3)CC2)c2ccccc21 [compound 44]
[1]
  M4 Activity: +++ (activity was measured to be less than 2.0 μM)
  Emax: 25 to 100%
[2]
  M1 Activity: + (activity was measured to be greater than 10.0 μM)
  Emax: 25 to 100%

## CNC(=O)C1=CC2(CCN(C3C[C@@H]4CC[C@@H]3C4)CC2)c2ccccc21 (stereo in doubt) [Compound No. 38, 1′-(bicyclo[2.2.1]heptan-2-yl)-N-methylspiro[indene-1,4′-piperidine]-3-carboxamide]
[1]
  M4 Activity: +++ (activity was measured to be less than 2.0 μM)
  Emax: 25 to 100%
[2]
  M1 Activity: + (activity was measured to be greater than 10.0 μM)
  Emax: 25 to 100%

## CCOC(=O)N1CCC(N2CCC3(CC=C(C(=O)NC(C)C)c4ccccc43)CC2)CC1 [compound 72]
[1]
  M4 Activity: +++ (activity was measured to be less than 2.0 μM)
  Emax: 25 to 100%
[2]
  M1 Activity: +++ (activity was measured to be less than 2.0 μM)
  Emax: 25 to 100%

## CNC(=O)C1=CC2(CCN(CC3CCCCC3)CC2)c2ccccc21 [Compound No. 6]
[1]
  M4 Activity: +++ (activity was measured to be less than 2.0 μM)
  Emax: 25 to 100%
[2]
  M1 Activity: + (activity was measured to be greater than 10.0 μM)
  Emax: 25 to 100%

## CNC(=O)C1=CC2(CCN(CCC3CCOCC3)CC2)c2ccccc21 [compound 8]
[1]
  M4 Activity: + (activity was measured to be greater than 10.0 μM)
  Emax: < 25%
[2]
  M1 Activity: + (activity was measured to be greater than 10.0 μM)
  Emax: 25 to 100%

## CCOC(=O)N1C2CCC1CC(N1CCC3(C=C(C(=O)NC(CC)CC)c4ccccc43)CC1)C2 (stereo not shown) [compound 75]
[1]
  M4 Activity: +++ (activity was measured to be less than 2.0 μM)
  Emax: 25 to 100%
[2]
  M1 Activity: ++ (activity was measured to be from 2.0 μM to 10.0 μM)
  Emax: 25 to 100%

## CCC(CC)NC(=O)C1=CC2(CCN(C3CCN(C(=O)C(C)C)CC3)CC2)c2ccccc21 [compound 22]
[1]
  M4 Activity: + (activity was measured to be greater than 10.0 μM)
  Emax: < 25%
[2]
  M1 Activity: + (activity was measured to be greater than 10.0 μM)
  Emax: < 25%

## CC(C)NC(=O)C1=CCC2(CCN(CCC(C)(C)C)CC2)c2ccccc21 [compound 52]
[1]
  M4 Activity: + (activity was measured to be greater than 10.0 μM)
  Emax: < 25%
[2]
  M1 Activity: + (activity was measured to be greater than 10.0 μM)
  Emax: < 25%

## CC(C)(C)CCN1CCC2(C=C(C(=O)NC3CCCC3)c3ccccc32)CC1 [compound 77]
[1]
  M4 Activity: + (activity was measured to be greater than 10.0 μM)
  Emax: < 25%
[2]
  M1 Activity: + (activity was measured to be greater than 10.0 μM)
  Emax: 25 to 100%

## CCC(CC)NC(=O)C1=CC2(CCN(C3CCN(C(C)=O)CC3)CC2)c2ccccc21 [compound 10]
[1]
  M4 Activity: + (activity was measured to be greater than 10.0 μM)
  Emax: < 25%
[2]
  M1 Activity: + (activity was measured to be greater than 10.0 μM)
  Emax: < 25%

## CNC(=O)C1=CC2(CCN(C3CCCCCC3)CC2)c2ccccc21 [compound 41]
[1]
  M4 Activity: +++ (activity was measured to be less than 2.0 μM)
  Emax: 25 to 100%
[2]
  M1 Activity: ++ (activity was measured to be from 2.0 μM to 10.0 μM)
  Emax: 25 to 100%

## CCOC(=O)C1=CC2(CCN(CCC(C)(C)C)CC2)c2ccccc21 [compound 62]
[1]
  M4 Activity: +++ (activity was measured to be less than 2.0 μM)
  Emax: 25 to 100%
[2]
  M1 Activity: + (activity was measured to be greater than 10.0 μM)
  Emax: 25 to 100%

## CCC(CC)NC(=O)C1=CC2(CCN(C3CCN(C(=O)C4CC4)CC3)CC2)c2ccccc21 [compound 45]
[1]
  M4 Activity: + (activity was measured to be greater than 10.0 μM)
  Emax: 25 to 100%
[2]
  M1 Activity: + (activity was measured to be greater than 10.0 μM)
  Emax: < 25%

## CN(C)C(=O)C1=CC2(CCN(C3C[C@@H]4CC[C@@H]3C4)CC2)c2ccccc21 (stereo partly shown) [compound 64]
[1]
  M4 Activity: +++ (activity was measured to be less than 2.0 μM)
  Emax: 25 to 100%
[2]
  M1 Activity: + (activity was measured to be greater than 10.0 μM)
  Emax: < 25%

## CCOC(=O)N1CCC(N2CCC3(CC=C(C(=O)N(C)C)c4ccccc43)CC2)CC1 [compound 4, ethyl 4-(4-(dimethylcarbamoyl)-2H-spiro[naphthalene-1,4′-piperidine]-1′-yl)piperidine-1-carboxylate]
[1]
  M4 Activity: +++ (activity was measured to be less than 2.0 μM)
  Emax: 25 to 100%
[2]
  M1 Activity: +++ (activity was measured to be less than 2.0 μM)
  Emax: 25 to 100%

## CCC(CC)NC(=O)C1=CC2(CCN(CCC(C)C)CC2)c2ccccc21 [compound 40]
[1]
  M4 Activity: ++ (activity was measured to be from 2.0 μM to 10.0 μM)
  Emax: 25 to 100%
[2]
  M1 Activity: + (activity was measured to be greater than 10.0 μM)
  Emax: < 25%

## CN(C)C(=O)C1=CCC2(CCN(C3C[C@@H]4CC[C@@H]3C4)CC2)c2ccccc21 (stereo partly shown) [compound 74]
[1]
  M4 Activity: ++ (activity was measured to be from 2.0 μM to 10.0 μM)
  Emax: < 25%
[2]
  M1 Activity: + (activity was measured to be greater than 10.0 μM)
  Emax: < 25%

## CN(C)C(=O)C1=CC2(CCN(C3CCCCC3)CC2)c2ccccc21 [compound 61]
[1]
  M4 Activity: +++ (activity was measured to be less than 2.0 μM)
  Emax: 25 to 100%
[2]
  M1 Activity: + (activity was measured to be greater than 10.0 μM)
  Emax: < 25%

## CCOC(=O)N1C2CCC1CC(N1CCC3(CC=C(C(=O)N4CCCC4)c4ccccc43)CC1)C2 (stereo not shown) [compound 5]
[1]
  M4 Activity: +++ (activity was measured to be less than 2.0 μM)
  Emax: 25 to 100%
[2]
  M1 Activity: +++ (activity was measured to be less than 2.0 μM)
  Emax: 25 to 100%

From patent publication US7858790B2, “Modulators of muscarinic receptors” (Vertex Pharmaceuticals Incorporated, priority 2006, dated 2010)
